Experimental data taken from patent US6995272B2, “Crystal form of N-(4-trifluoromethylphenyl)-5-methylisoxazole-4-carboxamide” (Sanofi-Aventis Deutschland GmbH, priority 1997, dated 2006).
Values after ≈ are worked out from the molar mass of the structure shown.

How the values were obtained:
[1] = Stability of the first crystal modification on storage (X-ray diffraction pattern); type: physicochemical
Protocol: Stability of the First Crystal Modification Samples of The first crystal modification were prepared as in Example 1 and were stored at various temperatures at atmospheric humidity. After the stated times, samples were taken and an X-ray diffraction pattern was prepared as in Example 1. […] For preparing the calibration curve for the quantitative determination, the reflection at 2θ=8.35° was used for phase 1 and the reflection at 2θ=16.1° was used for phase 2. The ratios of the corresponding peak heights were calculated and were correlated with the contents of phase 2. The limit of the method is 0.3%. The sample after storage for 1 month at 60° C. contains about 76% of the second crystal modification according to this method.

Solubility in water = type: physicochemical; settings: for Solubility in water, result: water at 37° C., sampling 5 hours, UV detection
Excerpt: Solubility in Water [table]

[2] = system: humans who suffer from rheumatic arthritis; experiment: Efficacy in humans who suffer from rheumatic arthritis; type: in vivo; settings: drug comprising an effective content
[3] = Stability of the first crystal modification on storage (X-ray diffraction pattern); type: physicochemical; settings: +40° C./75% relative humidity

Crystal modification ([1]; 1 month, +25° C.) | Crystal modification ([1]; 1 month, +40° C.) | Crystal modification ([1]; 1 month, −15° C.) | Crystal modification ([1]; 3 months, +25° C.) | Crystal modification ([1]; 3 months, +40° C.) | Crystal modification ([1]; 3 months, +60° C.) | Crystal modification ([1]; 3 months, −15° C.) | Crystal modification ([1]; 6 months, +25° C.) | Crystal modification ([1]; 6 months, +40° C.) | Crystal modification ([1]; 6 months, −15° C.) | stability (not converted into the second crystal modification) ([1]; temperature range from −15° C. to +40° C.) | solubility (Solubility in water; water, 37 °C, water, thermodynamic from solid, water, 37° C., read-out: water solubility (amount that can be dissolved)) [µg/mL] | Crystal modification ([3]; 1 month) | Crystal modification ([3]; 3 months) | Crystal modification ([3]; 6 months) | water solubility (amount that can be dissolved) (Solubility in water; water, 37° C.) [µg/mL] | Compound | Solubility in water, result (Solubility in water) | efficacy in comparison with a drug comprising the second crystal modification [2]
First | First | First | First | First | Second | First | First | First | First | stable | 38 (≈ 141 µM) | First | First | First | – | Cc1oncc1C(=O)Nc1ccc(C(F)(F)F)cc1 [first crystal modification, N-(4-trifluoromethylphenyl)-5-methylisoxazole-4-carboxamide] | 38 mg dissolved in 1 liter of water at 37 °C | same efficacy
– | – | – | – | – | – | – | – | – | – | – | – | – | – | – | 25 (≈ 92.5 µM) | Cc1oncc1C(=O)Nc1ccc(C(F)(F)F)cc1 [second crystal modification, N-(4-trifluoromethylphenyl)-5-methylisoxazole-4-carboxamide] | 25 mg dissolved in 1 liter of water at 37 °C | –
